Consider 21 compounds from patent US12110293B2, “Substituted triazolo quinoxaline derivatives” (GRÜNENTHAL GMBH, priority 2018, dated 2024).

Structures are written as SMILES.

The target of the experiment is T1, glucocorticoid receptor (Homo sapiens, UniProt P04150).
T1 construct: expressed in transfected cells
T1 sequence (P04150 524-758 limits assumed): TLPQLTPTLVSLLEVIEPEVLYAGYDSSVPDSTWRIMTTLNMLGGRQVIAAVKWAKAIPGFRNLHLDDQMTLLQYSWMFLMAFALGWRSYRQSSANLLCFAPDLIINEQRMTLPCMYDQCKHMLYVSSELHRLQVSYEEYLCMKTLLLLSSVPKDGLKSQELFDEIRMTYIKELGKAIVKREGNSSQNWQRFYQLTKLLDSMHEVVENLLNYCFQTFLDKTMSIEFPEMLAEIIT
The experiment can be described thus: Agonistic mode of action on the glucocorticoid receptor (CHO-Gal4/GR luciferase reporter cell line). The class given is cell-based. The note with it: range class observed in the agonistic assay or the antagonistic assay (CHO-Gal4/GR reporter cells); table does not say which mode applies per example. From the text:
Potential selective glucocorticoid receptor modulators of this intervention can be tested for modulation of the activity of the glucocorticoid receptor using cell-based assays. These assays involve a Chinese hamster ovary (CHO) cell line which contains fragments of the glucocorticoid receptor as well as fusion proteins. The glucocorticoid receptor fragments used are capable of binding the ligand (e.g. beclomethasone) to identify molecules that compete for binding with glucocorticoid receptor ligands. In more detail, the glucocorticoid receptor ligand binding domain is 25 fused to the DNA binding domain (DBD) of the transcriptionfactor GAL4 (GAL4 DBD-GR) and is stably integrated into a CHO cell line containing a GAL4-UAS-Luciferase reporter construct. […] After cell lysis the luminescence that is produced by luciferase after addition of the substrate is detected and EC50 or IC50 values can be calculated. Engagement of molecules which induce gene expression via glucocortocoid receptor binding to the DNA leads to expression of the luciferase gene under the control of the fusion protein GAL4 DBD-GR and therefore to a dose-dependent increase of the luminescence signal. Binding of molecules which repress beclomethasone-induced gene expression of the luciferase gene under the control of the fusion protein GAL4 DBD-GR leads to a dose-dependent reduction of the luminescence signal.
Biological Assays Agonistic Mode of Action on the Glucocorticoid Receptor
The reporter cell line CHO-Gal4/GR consisted of a Chinese hamster ovary (CHO) cell line (Leibniz Institute DSMZ—German Collection of Microorganisms and Cell CuItures GmbH: ACC-110) containing a firefly luciferase gene under the control of the GR ligand binding domain fused to the DNA binding domain (DBD) of GAL4 (GAL4 DBD-GR) stably integrated into CHO cells. This cell line was established by stable transfection of CHO cells with a GAL4-UAS-Luciferase reporter construct. In a subsequent step the ligand binding domain of the GR cloned into pIRES2-EGFP-GAL4 containing the DNA binding domain of GAL4 from pFA-AT2 was transfected. This fusion construct activated firefly luciferase expression under the control of a multimerized GAL4 upstream activation sequence (UAS). The signal of the emitted luminescence was recorded by the FLIPR^TETRA. This allowed for specific detection of ligand-induced activation of the GR and therefore for the identification of compounds with agonistic properties. The GAL4/UAS reporter was premixed with a vector that constitutively expressed Renilla luciferase, which served as an internal positive control for transfection efficiency.
The complete culture medium for the assay was: • DMEM F-12 (1:1) MIXTURE (LONZA cat. N°: BE04-687F/U1) 500 mL • 5 mL of 100 mM Sodium Pyruvate (LONZA cat. N°: BE12-115E) • 25 mL of 7.5% Sodium Bicarbonate (LONZA cat. N° BE17-613E) • 6.5 mL of 1 M Hepes (LONZA cat. N°: BE17-737E) • 5 mL of 100× Penicillin/Streptomycin (LONZA cat. N° DE17-602E) • 50 mL of Fetal Bovine Serum (Euroclone cat. N° ECS 0180L) • 0.25 mL of 10 mg/mL Puromycin (InvivoGen cat.: ant-pr-1) • 0.5 mL of 100 mg/mL Zeocin (InvivoGen cat.: ant-zn-1)
Cryo-preserved CHO-Gal4/GR cells were suspended in complete medium and 5000 cells/25 μl/well were seeded into the wells of 384-well polystyrene assay plates (Thermo Scientific, cat. #4332) and cultured at 37° C., 5% CO2 and 95% humidity. After 24 hours growth medium was carefully removed and replaced by 30 μl Opti-MEM (GIBCO, cat. #31985062) as assay buffer. To test the compounds an 8-point half-log compound dilution curve was generated in 100% DMSO starting from a 2 mM stock and compounds were then diluted 1:50 in Opti-MEM. 10 μl of compounds were then added to the wells containing 30 μl Opti-MEM resulting in a final assay concentration range from 10 μM to 0.003 μM in 0.5% DMSO. Compounds were tested at 8 concentrations in quadruplicate data points.
For orientation: A reporter such as luciferase makes a cellular process visible.

As for `Cc1nnc2n1-c1c(cc(F)c(-c3ccc(F)c4[nH]ncc34)c1F)NC2(C)C` [Example 501, 7,9-Difluoro-8-(7-fluoro-1H-indazol-4-yl)-1,4,4-trimethyl-5H-[1,2,4]triazolo[4,3-a]quinoxaline], the IC50 or EC50 (agonist or antagonist mode not specified) is 100 to 1000 nM.
`Cc1c[nH]c2c(-c3ccc4c(c3C(F)(F)F)-n3c(C)nnc3C(C)(C)N4)cc(F)cc12` [Example 507, 8-(5-Fluoro-3-methyl-1H-indol-7-yl)-1,4,4-trimethyl-9-(trifluoro-methyl)-5H-[1,2,4]triazolo[4,3-a] quinoxaline] displayed an IC50 or EC50 (agonist or antagonist mode not specified) of under 100 nM.
Compound `COc1cc2c(c(C(F)(F)F)c1-c1cccc3c1ccn3S(C)(=O)=O)-n1c(C)nnc1C(C)(C)N2` [Example 310, 7-Methoxy-1,4,4-trimethyl-8-(1-methylsulfonyl-1H-indol-4-yl)-9-(trifluoromethyl)-5H-[1,2,4]triazolo[4,3-a]quinoxaline] yielded an IC50 or EC50 (agonist or antagonist mode not specified) of 100 to 1000 nM.
The value for `Cc1nnc2n1-c1c(cc(F)c(-c3cccc4c3ccn4S(=O)(=O)C3CC3)c1F)NC2(C)C` [Example 205, 8-[1-(Cyclopropylsulfonyl)-1H-indol-4-yl]-7,9-difluoro-1,4,4-trimethyl-5H-[1,2,4]triazolo[4,3-a]quinoxaline] was 100 to 1000 nM; that for `Cc1c(-c2cc(F)cc3c(C4CC4)c[nH]c23)c(F)cc2c1-n1c(C)nnc1C(C)(C)N2` [Example 33, 8-(3-cyclopropyl-5-fluoro-1H-indol-7-yl)-7-fluoro-1,4,4,9-tetramethyl-4,5-dihydro-[1,2,4]triazolo[4,3-a]quinoxaline] was under 100 nM.
In turn, `Cc1c[nH]c2c(-c3c(F)cc4c(c3Cl)-n3c(C)nnc3C(C)(C)N4)cc(F)cc12` [Example 30] came in with an IC50 or EC50 (agonist or antagonist mode not specified) of under 100 nM.
The value for `Cc1c(-c2cc(C(F)(F)F)cc3[nH]ccc23)c(Cl)cc2c1-n1c(C)nnc1C(C)(C)N2` [Example 475, 7-Chloro-1,4,4,9-tetramethyl-8-[6-(trifluoromethyl)-1H-indol-4-yl]-5H-[1,2,4]triazolo[4,3-a]quinoxaline] was 100 to 1000 nM.
In turn, `Cc1nnc2n1-c1c(cc(OC(F)F)c(-c3cccc4[nH]c(C(F)(F)F)cc34)c1F)NC2(C)C` [Example 252, 7-(Difluoro-methoxy)-9-fluoro-1,4,4-trimethyl-8-[2-(trifluoromethyl)-1H-indol-4-yl]-5H-[1,2,4]triazolo[4,3-a]quinoxaline] returned an IC50 or EC50 (agonist or antagonist mode not specified) of 100 to 1000 nM.
For `Cc1cc(-c2c(Cl)cc3c(c2C)-n2c(C)nnc2C(C)(C)N3)c2ccn(S(C)(=O)=O)c2c1` [Example 491, 7-Chloro-1,4,4,9-tetramethyl-8-(6-methyl-1-methylsulfonyl-1H-indol-4-yl)-5H-[1,2,4]triazolo[4,3-a] quinoxaline], the IC50 or EC50 (agonist or antagonist mode not specified) was under 100 nM.
As for `Cc1nnc2n1-c1c(cc(F)c(-c3c(F)ccc4[nH]ccc34)c1F)NC2(C)C` [Example 214, 7,9-Difluoro-8-(5-fluoro-1H-indol-4-yl)-1,4,4-trimethyl-5H-[1,2,4]triazolo[4,3-a]quinoxaline], the IC50 or EC50 (agonist or antagonist mode not specified) was under 100 nM.
The value for `Cc1c[nH]c2c(-c3c(F)cc4c(c3F)-n3c(Cc5cccnc5)nnc3C(C)(C)N4)cc(F)cc12` [Example 73, 7,9-Difluoro-8-(5-fluoro-3-methyl-1H-indol-7-yl)-4,4-dimethyl-1-(pyridin-3-yl-methyl)-5H-[1,2,4]triazolo[4,3-a]quinoxaline] was 100 to 1000 nM.
Regarding `Cc1c(-c2cc(F)cc3c(C)c[nH]c23)c(OC(F)(F)F)cc2c1-n1c(C)nnc1C(C)(C)N2` [Example 406, 8-(5-Fluoro-3-methyl-1H-indol-7-yl)-1,4,4,9-tetramethyl-7-(trifluoromethyloxy)-5H-[1,2,4]triazolo[4,3-a]quinoxaline], the IC50 or EC50 (agonist or antagonist mode not specified) lay in the range of 100 to 1000 nM.
The value for `Cc1nnc2n1-c1c(cc(F)c(-c3ccc(F)c4[nH]ccc34)c1F)NC2(C)C` [Example 497, 7,9-Difluoro-8-(7-fluoro-1H-indol-4-yl)-1,4,4-trimethyl-5H-[1,2,4]triazolo[4,3-a]quinoxaline] was 100 to 1000 nM; that for `COc1c(-c2cccc3c2ccn3C)c(F)cc2c1-n1c(C)nnc1C(C)(C)N2` [Example 487, 7-Fluoro-9-methoxy-1,4,4-trimethyl-8-(1-methyl-1H-indol-4-yl)-5H-[1,2,4]triazolo[4,3-a] quinoxaline] was 100 to 1000 nM.
`Cc1nnc2n1-c1c(cc(F)c(-c3cccc4c3ccn4S(C)(=O)=O)c1C(F)F)NC2(C)C` [Example 315, 9-(Difluoro-methyl)-7-fluoro-1,4,4-trimethyl-8-(1-methylsulfonyl-1H-indol-4-yl)-5H-[1,2,4]triazolo[4,3-a]quinoxaline] registered an IC50 or EC50 (agonist or antagonist mode not specified) of 100 to 1000 nM.
Regarding `Cc1c[nH]c2c(-c3c(F)cc4c(c3F)-n3c(Cc5ccccc5)nnc3C(C)(C)N4)cccc12` [Example 68, 1-Benzyl-7,9-difluoro-4,4-dimethyl-8-(3-methyl-1H-indol-7-yl)-5H-[1,2,4]triazolo[4,3-a]quinoxaline], the IC50 or EC50 (agonist or antagonist mode not specified) lay within 100 to 1000 nM.
`COc1cc2c(c(C(F)(F)F)c1-c1cc(F)cc3c(C)c[nH]c13)-n1c(C)nnc1C(C)(C)N2` [Example 459, 8-(5-Fluoro-3-methyl-1H-indol-7-yl)-7-methoxy-1,4,4-trimethyl-9-(trifluoromethyl)-5H-[1,2,4]triazolo[4,3-a]quinoxaline] gave an IC50 or EC50 (agonist or antagonist mode not specified) of under 100 nM.
`COc1c(-c2cc(C(F)(F)F)cc3[nH]ccc23)c(F)cc2c1-n1c(C)nnc1C(C)(C)N2` [Example 474, 7-Fluoro-9-methoxy-1,4,4-trimethyl-8-[6-(trifluoromethyl)-1H-indol-4-yl]-5H-[1,2,4]triazolo[4,3-a] quinoxaline]: the IC50 or EC50 (agonist or antagonist mode not specified) lay within 100 to 1000 nM.
To `Cc1nnc2n1-c1c(cc(F)c(-c3cccc4c3ccn4S(=O)(=O)CC3CC3)c1F)NC2(C)C` [Example 210, 8-[1-(Cyclopropyl-methylsulfonyl)-1H-indol-4-yl]-7,9-difluoro-1,4,4-trimethyl-5H-[1,2,4]triazolo[4,3-a]quinoxaline] belongs under 100 nM; to `Cc1c(-c2cc(F)cc3c2ccn3S(C)(=O)=O)c(OC(F)F)cc2c1-n1c(C)nnc1C(C)(C)N2` [Example 335, 7-(Difluoro-methoxy)-8-(6-fluoro-1-methylsulfonyl-1H-indol-4-yl)-1,4,4,9-tetramethyl-5H-[1,2,4] triazolo[4,3-a]quinoxaline], 100 to 1000 nM; to `Cc1nnc2n1-c1c(cc(F)c(-c3cccc4c3ccn4S(=O)(=O)CC3CC3)c1C(F)F)NC2(C)C` [Example 502, 8-[1-(Cyclopropyl-methylsulfonyl)-1H-indol-4-yl]-9-(difluoro-methyl)-7-fluoro-1,4,4-trimethyl-5H-[1,2,4]triazolo[4,3-a]quinoxaline], 100 to 1000 nM.
